The subject of data set [1] is Lambsquarter (Chenopodium album). The experiment in a line: Preemergence herbicidal activity, Lambsquarter. The following applies: pre-emergence, 504 h, visual score after 3 weeks, 100 = complete kill or no germination, read-out: Pre-emergent % control CHEAL; for pest or weed control at 280 ppm: rate 280 ppm; for pest or weed control at 560 ppm: rate 560 ppm; for pest or weed control at 140 ppm: rate 140 ppm. Type of data set: in vivo. From the text:
(§1) Seeds of the desired test plant species were planted in a soil matrix prepared by mixing a loam soil (43 percent silt, 19 percent clay, and 38 percent sand, with a pH of about 8.1 and an organic matter content of about 1.5 percent) and sand in a 70 to 30 ratio. The soil matrix was contained in plastic pots with a surface area of 113 square centimeters. When required to ensure good germination and healthy plants, a fungicide treatment and/or other chemical or physical treatment was applied. A weighed amount, determined by the highest rate to be tested, of each test compound was placed in a 20 mL glass vial and was dissolved in 4 mL of a 97:3 v/v (volume/volume) mixture of acetone and dimethyl sulfoxide to obtain concentrated stock solutions. […] The stock solutions obtained were diluted with a 99.9:0.1 mixture of water and Tween® […] surfactant to obtain application solutions of known concentration. The solutions containing the highest concentration to be tested were prepared by diluting 2 mL aliquots of the stock solution with 15 mL of the mixture and lower concentrations were prepared by serial dilution of the stock solution. A 2.5 mL aliquot of each solution of known concentration was sprayed evenly onto the soil surface (113 sq. cm) of each seeded pot using a Cornwall 5.0 mL glass syringe fitted with a TeeJet TN-3 hollow cone nozzle to obtain thorough coverage of the soil in each pot. Control pots were sprayed in the same manner with the aqueous mixture. The treated pots and control pots were placed in a greenhouse maintained with an approximate 15 hr photoperiod and temperatures of about 23-29° C. during the day and 22-28° C. during the night. Nutrients and water were added on a regular basis and supplemental lighting was provided with overhead metal halide 1000-Watt lamps as necessary. The water was added by top-irrigation. After 3 weeks the condition of the test plants that germinated and grew as compared with that of the untreated plants that germinated and grew was determined visually and scored on a scale of 0 to 100 percent where 0 corresponds to no injury and 100 corresponds to complete kill or no germination.

Data set [2] relates to Ivyleaf Morningglory (Ipomoea hederacea). The experiment in a line: Preemergence herbicidal activity, Ivyleaf Morningglory. Type of data set: in vivo. The note with it: pre-emergence, 504 h, visual score after 3 weeks, 100 = complete kill or no germination, read-out: Pre-emergent % control IPOHE; for pest or weed control at 280 ppm: rate 280 ppm; for pest or weed control at 560 ppm: rate 560 ppm; for pest or weed control at 140 ppm: rate 140 ppm.
Description: as §1

For data set [3], the system named is Crabgrass(large) (Digitaria sanguinalis). In words: Preemergence herbicidal activity, Crabgrass(large). The format is in vivo. The following applies: pre-emergence, 504 h, visual score after 3 weeks, 100 = complete kill or no germination, read-out: Pre-emergent % control DIGSA; for pest or weed control at 280 ppm: rate 280 ppm; for pest or weed control at 560 ppm: rate 560 ppm; for pest or weed control at 140 ppm: rate 140 ppm.
Description: as §1

Data set [4] relates to Barnyardgrass (Echinochloa crus-galli). The experiment in a line: Postemergence herbicidal activity, Barnyardgrass. The note with it: post-emergence, 336 h, visual score after 2 weeks, 0 = no injury, 100 = complete kill, read-out: Post-emergent % control ECHCG; for pest or weed control at 250 ppm: rate 250 ppm. Type of data set: in vivo. On the procedure: (§2) Seeds of the desired test plant species were planted in Grace-Sierra MetroMix® 306 planting mixture, which typically has a pH of 6.0 to 6.8 and an organic matter content of about 30 percent, in plastic pots with a surface area of 64 square centimeters. When required to ensure good germination and healthy plants, a fungicide treatment and/or other chemical or physical treatment was applied. The plants were grown for 7-21 days in a greenhouse with an approximate 15 hr photoperiod which was maintained at about 23-29° C. during the day and 22-28° C. during the night. Nutrients and water were added on a regular basis and supplemental lighting was provided with overhead metal halide 1000-Watt lamps as necessary. The plants were employed for testing when they reached the first or second true leaf stage. A weighed amount, determined by the highest rate to be tested, of each test compound was placed in a 20 mL glass vial and was dissolved in 4 mL of a 97:3 v/v (volume/volume) mixture of acetone and dimethyl sulfoxide (DMSO) to obtain concentrated stock solutions. […] The concentrated stock solutions obtained were diluted with an aqueous mixture containing acetone, water, isopropyl alcohol, DMSO, Atplus 411F crop oil concentrate, and Triton X-155 surfactant in a 48.5:39:10:1.5:1.0:0.02 v/v ratio to obtain spray solutions of known concentration. The solutions containing the highest concentration to be tested were prepared by diluting 2 mL aliquots of the stock solution with 13 mL of the mixture and lower concentrations were prepared by serial dilution of the stock solution. Approximately 1.5 mL aliquots of each solution of known concentration were sprayed evenly onto each of the test plant pots using a DeVilbiss atomizer driven by compressed air pressure of 2 to 4 psi (140 to 280 kilopascals) to obtain thorough coverage of each plant. Control plants were sprayed in the same manner with the aqueous mixture. In this test an application rate of 1 ppm results in the application of approximately 1 g/Ha. The treated plants and control plants were placed in a greenhouse as described above and watered by sub-irrigation to prevent wash-off of the test compounds. After 2 weeks the condition of the test plants as compared with that of the untreated plants was determined visually and scored on a scale of 0 to 100 percent where 0 corresponds to no injury and 100 corresponds to complete kill.

Data set [5] concerns Lambsquarter (Chenopodium album). The experiment in a line: Postemergence herbicidal activity, Lambsquarter. Type of data set: in vivo. The note with it: post-emergence, 336 h, visual score after 2 weeks, 0 = no injury, 100 = complete kill, read-out: Post-emergent % control CHEAL; for pest or weed control at 250 ppm: rate 250 ppm. On the procedure:
as §2

For data set [6], the system named is Giant Foxtail (Setaria faberi). The experiment in a line: Postemergence herbicidal activity, Giant Foxtail. Type of data set: in vivo. The following applies: post-emergence, 336 h, visual score after 2 weeks, 0 = no injury, 100 = complete kill, read-out: Post-emergent % control SETFA; for pest or weed control at 250 ppm: rate 250 ppm. On the procedure:
as §2

Data set [7] relates to Giant Foxtail (Setaria faberi). The experiment in a line: Preemergence herbicidal activity, Giant Foxtail. Type of data set: in vivo. The note with it: pre-emergence, 504 h, visual score after 3 weeks, 100 = complete kill or no germination, read-out: Pre-emergent % control SETFA; for pest or weed control at 280 ppm: rate 280 ppm; for pest or weed control at 560 ppm: rate 560 ppm; for pest or weed control at 140 ppm: rate 140 ppm.
Description: as §1

Data set [8] has as its system Cocklebur (Xanthium strumarium). The experiment in a line: Postemergence herbicidal activity, Cocklebur. The following applies: post-emergence, 336 h, visual score after 2 weeks, 0 = no injury, 100 = complete kill, read-out: Post-emergent % control XANST; for pest or weed control at 250 ppm: rate 250 ppm. Type of data set: in vivo. On the procedure:
as §2

As to `C=Cc1nc(C(=O)OC)c(Cl)c(N)c1F` [Compound 1, Methyl 4-amino-3-chloro-5-fluoro-6-vinylpyridine-2-carboxylate], the melting point (usually the temperature, or range, at which the solid turns liquid) was in the range of 68 to 71 °C. For the same compound, the pest or weed control at 280 ppm in data set [1] stood at 100%. Moreover, the pest or weed control at 280 ppm in data set [2] stood at 100%. The pest or weed control at 280 ppm in data set [3] was 95%. Besides, the pest or weed control at 250 ppm in [4] was found to be 60%. In [5], the pest or weed control at 250 ppm was found to be 100%. For the same compound, the pest or weed control at 250 ppm in [6] came to 50%. In addition, the pest or weed control at 280 ppm in data set [7] was determined as 90%. Besides, the pest or weed control at 250 ppm in [8] was 100%.
As for `C=Cc1cc(N)c(Cl)c(C(=O)OC)n1` [Compound 2, Methyl 4-amino-3-chloro-6-vinylpyridine-2-carboxylate], the pest or weed control at 560 ppm in data set [1] was determined as 100%; in data set [2] it was 60%; in [3], 0%; in data set [7] it was 0%. The pest or weed control at 250 ppm is 0% in [4], 85% in data set [5], 10% in [6] and 80% in [8].
`CCc1nc(C(=O)OC)c(Cl)c(N)c1F` [Compound 3, Methyl 4-amino-3-chloro-6-ethyl-5-fluoropyridine-2-carboxylate] yielded a melting point of 109 to 110 °C. In addition, the pest or weed control at 140 ppm in data set [1] was 100%. For the same compound, the pest or weed control at 140 ppm in data set [2] turned out to be 100%. In addition, in data set [3], the pest or weed control at 140 ppm is 100%. Further, in [4], the pest or weed control at 250 ppm was 85%. The pest or weed control at 250 ppm in [5] is 100%. In addition, the pest or weed control at 250 ppm in data set [6] worked out at 80%. The pest or weed control at 140 ppm in [7] came out at 100%. In data set [8], the pest or weed control at 250 ppm worked out at 100%.
`CCc1nc(C(=O)O)c(Cl)c(N)c1F` [Compound 5, 4-Amino-3-chloro-6-ethyl-5-fluoropyridine-2-carboxylic acid]: the melting point lay within 144 to 145 °C. For the same compound, in [1], the pest or weed control at 140 ppm was 100%. Besides, the pest or weed control at 140 ppm in data set [2] was 100%. Further, in [3], the pest or weed control at 140 ppm is 90%. Also, the pest or weed control at 250 ppm in [4] worked out at 85%. The pest or weed control at 250 ppm in data set [5] was found to be 100%. Moreover, in data set [6], the pest or weed control at 250 ppm worked out at 70%. Besides, the pest or weed control at 140 ppm in data set [7] was found to be 90%. Also, the pest or weed control at 250 ppm in data set [8] is 100%.
Take `Cc1nc(C(=O)O)c(Cl)c(N)c1F` [Compound 7, 4-Amino-3-chloro-6-methyl-5-fluoropyridine-2-carboxylic acid]: the pest or weed control at 295 ppm in data set [1] (rate 295 ppm) is 98%; in data set [2] (rate 295 ppm), 98%; in data set [3] (rate 295 ppm), 85%; in [7] (rate 295 ppm) it was 85%. The pest or weed control at 288 ppm worked out at 80% in [4] (rate 288 ppm), 98% in data set [5] (rate 288 ppm), 85% in data set [6] (rate 288 ppm) and 100% in [8] (rate 288 ppm).
Take `Cc1cc(N)c(Cl)c(C(=O)O)n1` [Compound 8, 4-Amino-3-chloro-6-methylpyridine-2-carboxylic acid]: the pest or weed control at 280 ppm in [1] was 100%; in data set [2] it was 85%; in [3], 20%; in data set [7], 10%. The pest or weed control at 250 ppm in data set [4] was 0%; in data set [5], 40%; in data set [6], 0%; in data set [8], 70%.
On to `CSCc1cc(N)c(Cl)c(C(=O)O)n1` [Compound 10, 4-Amino-3-chloro-6-[(methylthio)methyl]pyridine-2-carboxylic acid], for which the pest or weed control at 560 ppm in [1], in data set [2], in data set [3] and in data set [7] was 0% each time. For the same compound, the pest or weed control at 250 ppm in [4] turned out to be 0%; in [5], 70%; in data set [6], 20%; in [8] it was 85%.
For the compound `C=CCc1cc(N)c(Cl)c(C(=O)O)n1` [Compound 11, 6-Allyl-4-amino-3-chloropyridine-2-carboxylic acid], the pest or weed control at 560 ppm in [1] was found to be 40%; in data set [2] it was 80%; in [3] it was 0%; in data set [7] it was 0%. For the same compound, the pest or weed control at 250 ppm stood at 0% in data set [4], 70% in [5], 0% in [6] and 85% in data set [8].

These data come from patent US7432227B2, “6-alkyl or alkenyl-4-aminopicolinates and their use as herbicides” (Dow AgroSciences LLC, priority 2003, dated 2008).
